{"source": "paper PMC12059162", "about": "(Scientific Reports, 2025)", "key": {"NHDF cells": {"tested_on": "NHDF cells", "test": "alamarBlue cell viability, healthy cells", "details": "Homo sapiens, NHDF, 72 h, read-out: IC50 values (μM) 72 hours"}, "XIAP": {"tested_on": "XIAP", "test": "Human Apoptosis Array in PANC-1 cells", "details": "PANC-1, 0.5 µM, 72 h"}, "PANC-1 cells": {"tested_on": "PANC-1 cells", "test": "CyQUANT LDH direct cytotoxicity assay", "assay_type": "cell-based, human", "details": "PANC-1, 25 µM, 72 h", "experimental": "To assess the direct cytotoxicity, the CyQUANT™ LDH Cytotoxicity Assay (Invitrogen Corporation, New York, NY, USA) was used, which is a colourimetric assay. It is based on the detection of lactate dehydrogenase (LDH) activity. When there is damage to the plasma membrane, LDH is released into the cell culture medium, where it can be detected. First, 5 × 10^3 cells/well/100 µL concentration of cells were seeded in a 96-well plate, and after 24 h of incubation, the cells were treated with the molecules at concentrations of 0.5, 10 and 25 µM. After 72 h of treatment, 50 µl of the media from each sample was pipetted to a new 96-well plate. Then, the necessary steps were carried out according to the manufacturer’s instructions. Absorbance was measured for each well using a plate reader (Multiskan MS, Labsystems, Helsinki, Finland) at 492 and 680 nm. The % cytotoxicity was then calculated according to the manufacturer’s instructions. Three parallel samples were analysed in each treatment group."}, "phospho-p53 (S392)": {"tested_on": "phospho-p53 (S392)", "test": "Human Apoptosis Array in PANC-1 cells", "details": "PANC-1, 0.5 µM, 72 h"}, "DR5": {"tested_on": "DR5", "test": "Human Apoptosis Array in PANC-1 cells", "details": "PANC-1, 0.5 µM, 72 h"}, "cleaved caspase-3": {"tested_on": "cleaved caspase-3", "test": "Human Apoptosis Array in PANC-1 cells", "details": "PANC-1, 0.5 µM, 72 h"}, "SMAC": {"tested_on": "SMAC", "test": "Human Apoptosis Array in PANC-1 cells", "details": "PANC-1, 0.5 µM, 72 h"}, "survivin": {"tested_on": "survivin", "test": "Human Apoptosis Array in PANC-1 cells", "details": "PANC-1, 0.5 µM, 72 h"}, "cytochrome-c": {"tested_on": "cytochrome-c", "test": "Human Apoptosis Array in PANC-1 cells", "details": "PANC-1, 0.5 µM, 72 h"}, "DR4": {"tested_on": "DR4", "test": "qPCR apoptotic gene expression in PANC-1 cells", "details": "PANC-1, 25 µM"}}}
{"smiles": "O=C1C2=C(CCN(Cc3ccccc3)C2)N2CCN=C2N1Cc1ccc(F)cc1", "note": "[TBP-134]", "values": [{"measurement": "IC50", "setting": "NHDF cells", "value": 1.55, "unit": "µM"}, {"measurement": "XIAP protein level", "setting": "XIAP", "value": "decrease"}, {"measurement": "cytotoxicity at 25 µM", "setting": "PANC-1 cells; Homo sapiens, DMSO control 5.3%", "value": 6.9, "unit": "%"}, {"measurement": "Direct cytotoxicity, fold compared to the DMSO control", "setting": "PANC-1 cells", "value": 1.3, "unit": "fold"}, {"measurement": "phospho-p53 (S392) protein level", "setting": "phospho-p53 (S392)", "value": "decrease"}]}
{"smiles": "O=C1C2=C(CCN(Cc3ccccc3)C2)N2CCN=C2N1Cc1cccc(F)c1", "note": "[TBP-135]", "values": [{"measurement": "DR5 protein level", "setting": "DR5", "value": "significantly increased"}, {"measurement": "cleaved caspase-3 protein level", "setting": "cleaved caspase-3", "value": "significantly increased"}, {"measurement": "SMAC protein level", "setting": "SMAC", "value": "significantly increased"}, {"measurement": "survivin protein level", "setting": "survivin", "value": "did not exert detectable change"}, {"measurement": "cytochrome-c protein level", "setting": "cytochrome-c", "value": "significantly decreased"}, {"measurement": "DR4 mRNA expression", "setting": "DR4; 3 h", "value": "significantly upregulated"}, {"measurement": "DR4 mRNA expression", "setting": "DR4; 24 h, normalised to DMSO control", "value": 3.7, "unit": "fold"}]}
